The source of these data is patent publication US10173990B2, “URAT1 inhibitor” (Nippon Chemiphar Co., Ltd., priority 2014, dated 2019).

The target of this assay is URAT1 (Homo sapiens (Human), UniProt Q96S37). In words: Uptake of [14C] uric acid using HEK-URAT1. In kind it is cell-based. The settings on record: for remaining activity at 10 µM: 2 min, [14C] uric acid uptake into URAT1 stably expressed HEK293 cells, 10 μM test compound, 5 μM uric acid, 2 minutes, 37° C., uptake without test compound = 100%, read-out: % control (10 μM); for IC50: inhibition of [14C] uric acid uptake into URAT1 stably expressed HEK293 cells. As for the experimental part:
More specifically, the test is performed by culturing URAT1 stably expressed HEK293 cells (HEK-URAT1) or HEK293 cells transfected with empty vector (HEK-mock) in a DMEM culture medium in an incubator. Subsequently, 1×10^5 cells are respectively seeded in 24-well culture plate coated with poly D-lysine and the uptake test is started after the culturing.
The cells are washed with a solution for a test warmed to 37° C. and equilibrated. After a buffer solution is removed from the cells, 0.5 mL of an uptake solution containing 5 μM [^14C] uric acid with or without a test compound is respectively added and the cells are incubated. The cell uptake is stopped by adding a Hanks buffer solution and the cells are washed. The cells are lysed with 0.1 N sodium hydroxide and the radioactivity is measured using LSC6100 (Aloka Co., Ltd. Tokyo). Each uptake into HEK-URAT1 is acquired by subtracting uptake into HEK-mock cells from the value of HEK-URAT1, converting the result to per mg protein of cells, and setting the values from the uptake without the test compound as 100%.
URAT1 stably expressed HEK293 cells (HEK-URAT1) or HEK293 cells transfected with empty vector (HEK-mock) were cultured in DMEM culture medium supplemented with 10% fetal bovine serum in an incubator under conditions of 5% carbon dioxide at 37° C. Subsequently, 1×10^5 cells were respectively seeded in 24-well culture plate coated with poly D-lysine and the uptake test was started after the culturing for 3 days.
The uptake experiment of uric acid was performed at 37° C. […] After a buffer solution was removed from the cells, 0.5 mL of an uptake solution containing 5 μM [^14C] uric acid with or without a test compound was respectively added and the cells were incubated for 2 minutes. The cell uptake was stopped by adding an ice-cold Hanks buffer solution without chloride ions and the cells were washed 3 times. The cells were lysed with 0.1 N sodium hydroxide and the radioactivity was measured using LSC6100 (Aloka Co., Ltd. Tokyo). Each uptake into HEK-URAT1 was acquired by subtracting uptake into HEK-mock cells from the value of HEK-URAT1, converting the result to per mg protein of cells, and setting the value from uptake without the test compound as 100%. The uptake in each condition was performed in triplicate and each value was represented by average±standard deviation.
The URAT1 inhibitory action was measured according to the same method as in Example 118.

Chain of URAT1 (Q96S37 whole entry): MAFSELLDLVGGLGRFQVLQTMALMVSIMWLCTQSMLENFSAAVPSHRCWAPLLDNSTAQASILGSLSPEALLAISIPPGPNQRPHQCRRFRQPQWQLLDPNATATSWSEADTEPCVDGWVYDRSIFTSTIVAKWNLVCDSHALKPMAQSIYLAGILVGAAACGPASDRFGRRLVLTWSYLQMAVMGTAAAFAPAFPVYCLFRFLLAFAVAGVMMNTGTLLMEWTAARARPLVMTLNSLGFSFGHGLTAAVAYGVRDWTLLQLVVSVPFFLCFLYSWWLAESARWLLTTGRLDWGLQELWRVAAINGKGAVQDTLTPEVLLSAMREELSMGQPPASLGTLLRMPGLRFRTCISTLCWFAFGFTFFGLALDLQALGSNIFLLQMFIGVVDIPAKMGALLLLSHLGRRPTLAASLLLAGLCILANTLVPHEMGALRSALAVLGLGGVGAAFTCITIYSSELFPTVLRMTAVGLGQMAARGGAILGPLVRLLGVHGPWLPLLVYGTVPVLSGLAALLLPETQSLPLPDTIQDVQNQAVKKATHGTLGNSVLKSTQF

Turning to `CC(C)(Oc1ccc2ccccc2c1-c1cccnc1)C(=O)O` [Example 8, 2-Methyl-2-[[1-(pyridin-3-yl)naphthalen-2-yl]oxy]propanoic acid], the remaining activity at 10 µM was 61.3%.

Regarding `Cc1cc(-c2c(SC(C)(C)C(=O)O)ccc3cnsc23)ccc1C#N` [Example 88, 2-[[7-(4-Cyano-3-methylphenyl)benzo[d]isothiazol-6-yl]thio]-2-methylpropanoic acid], the remaining activity at 10 µM turned out to be 3.8%.

With `CC(C)(Sc1ccc2ccccc2c1-c1ccc(C#N)c2ccccc12)C(=O)O` [Example 4, 2-[(4′-Cyano[1,1′-binaphthalene]-2-yl)thio]-2-methylpropanoic acid], the remaining activity at 10 µM stood at 15.1% and the half-maximal inhibitory concentration (IC50) was 790 nM.

`N#Cc1ccc(-c2c(SC3(C(=O)O)CCCC3)ccc3cnsc23)cc1` [Example 68, 1-[[7-(4-Cyanophenyl)benzo[d]isothiazol-6-yl]thio]cyclopentan-1-carboxylic acid]: the remaining activity at 10 µM is less than 0.1% and 26.2 nM corresponded to half-maximal inhibition (IC50).

As for `N#Cc1ccc(-c2c(O/C=C/C(=O)O)ccc3ncsc23)cc1` [Example 21, (E)-3-[[7-(4-cyanophenyl)benzo[d]thiazol-6-yl]oxy]acrylic acid], the remaining activity at 10 µM worked out at 48.7%.

Take `CC(C)(Sc1ccc2cnsc2c1-c1cccc(C#N)c1)C(=O)O` [Example 84, 2-[[7-(3-Cyanophenyl)benzo[d]isothiazol-6-yl]thio]-2-methylpropanoic acid]: the remaining activity at 10 µM was 2.3% and 205 nM corresponded to half-maximal inhibition (IC50).

As for `N#Cc1ccc(-c2c(SC3(C(=O)O)CCCCC3)ccc3cnsc23)cc1` [Example 117, 1-[[7-(4-Cyanophenyl)benzo[d]isothazol-6-yl]thio]cyclohexan-1-carboxylic acid], the remaining activity at 10 µM stood at 2.7% and the IC50 amounted to 296 nM.

Take `Cc1ccc(-c2c(SC(C)(C)C(=O)O)ccc3cnsc23)cc1` [Example 74, 2-Methyl-2-[[7-(p-tolyl)benzo[d]isothiazol-6-yl]thio]propanoic acid]: the remaining activity at 10 µM stood at 6.8%.

Regarding `CC(C)(Sc1ccc2cnsc2c1-c1ccc(C#N)c(F)c1)C(=O)O` [Example 90, 2-[[7-(4-Cyano-3-fluorophenyl)benzo[d]isothiazol-6-yl]thio]-2-methylpropanoic acid], the remaining activity at 10 µM was found to be 3.6% and the IC50 came to 161 nM.

For the compound `CC(C)(Sc1ccc2ncsc2c1-c1ccc(OC(F)(F)F)cc1)C(=O)O` [Example 64, 2-Methyl-2-[[7-[4-(trifluoromethoxy)phenyl]benzo[d]thiazol-6-yl]thio]propanoic acid], the remaining activity at 10 µM is 30.1%.

In the case of `CCC(CC)(Sc1ccc2cnsc2c1-c1ccc(C#N)cc1)C(=O)O` [Example 113, 2-[[7-(4-Cyanophenyl)benzo[d]isothiazol-6-yl]thio]-2-ethylbutanoic acid], the remaining activity at 10 µM was less than 0.1% and it took 21 nM to reach half-maximal inhibition (IC50).

As to `CC(C)(Sc1ccc2cnsc2c1-c1ccc(C(F)(F)F)cc1)C(=O)O` [Example 78, 2-Methyl-2-[[7-[4-(trifluoromethyl)phenyl]benzo[d]isothiazol-6-yl]thio]propanoic acid], the remaining activity at 10 µM worked out at 3.2% and the IC50 is 104 nM.

Take `Cc1nsc2c(-c3ccc(C#N)cc3)c(SC3(C(=O)O)CCC3)ccc12` [Example 112, 1-[[7-(4-Cyanophenyl)-3-methylbenzo[d]isothiazol-6-yl]thio]cyclobutan-1-carb oxylic acid]: the remaining activity at 10 µM amounted to 13.8% and the midpoint of inhibition, the IC50, lay at 2430 nM.

Consider `CC(C)(Sc1ccc2cnsc2c1-c1ccc(Cl)cc1)C(=O)O` [Example 82, 2-[[7-(4-Chlorophenyl)benzo[d]isothiazol-6-yl]thio]-2-methylpropanoic acid], for which the remaining activity at 10 µM is less than 0.1% and the IC50 came out at 106 nM.

As to `CC(C)(Sc1ccc2cnsc2c1-c1ccc(OC(F)(F)F)cc1)C(=O)O` [Example 80, 2-Methyl-2-[[7-[4-(trifluoromethoxy)phenyl]benzo[d]isothiazol-6-yl]thio]propanoic acid], the remaining activity at 10 µM came to 29.2%.

Regarding `CC(C)(Sc1ccc2cnsc2c1-c1ccc([N+](=O)[O-])cc1)C(=O)O` [Example 72, 2-Methyl-2-[[7-(4-nitrophenyl)benzo[d]isothiazol-6-yl]thio]propanoic acid], the remaining activity at 10 µM is less than 0.1% and half-maximal inhibition (IC50) required 12 nM.

Turning to `CC(C)(Sc1ccc2ncccc2c1-c1ccc(C#N)cc1)C(=O)O` [Example 15, 2-[[5-(4-Cyanophenyl)quinolin-6-yl]thio]-2-methylpropanoic acid], the remaining activity at 10 µM was 50.1% and the IC50 came to 3440 nM.

On to `CC(C)(Oc1c(-c2ccc(C#N)cc2)ccc2ncsc12)C(=O)O` [Example 37, 2-[[6-(4-Cyanophenyl)benzo[d]thiazol-7-yl]oxy]-2-methylpropanoic acid], for which the remaining activity at 10 µM worked out at 78.6%.

Regarding `CC(C)(C)C(Sc1ccc2cnsc2c1-c1ccc(C#N)cc1)C(=O)O` (centres unmarked) [Example 114, 2-[[7-(4-Cyanophenyl)benzo[d]isothiazol-6-yl]thio]-3,3-dimethylbutanoic acid], the remaining activity at 10 µM stood at 5.8% and 474 nM corresponded to half-maximal inhibition (IC50).

With `Cc1nc2ccc(SC(C)(C)C(=O)O)c(-c3ccc(C#N)cc3)c2s1` [Example 62, 2-[[7-(4-Cyanophenyl)-2-methylbenzo[d]thiazol-6-yl]thio]-2-methylpropanoic acid], the remaining activity at 10 µM was determined as 49%.

Regarding `CC(C)(Oc1ccc2ncoc2c1-c1ccc(C#N)cc1)C(=O)O` [Example 17, 2-[[7-(4-Cyanophenyl)benzo[d]oxazol-6-yl]oxy]-2-methylpropanoic acid], the remaining activity at 10 µM came to 59.3%.

As for `CC(C)c1ccc(-c2c(SC(C)(C)C(=O)O)ccc3cnsc23)cc1` [Example 76, 2-[[7-(4-Isopropylphenyl)benzo[d]isothiazol-6-yl]thio]-2-methylpropanoic acid], the remaining activity at 10 µM was 12.7%.

On to `CC(C)(Oc1ccc2ncsc2c1-c1ccc(C#N)cc1)C(=O)O` [Example 19, 2-[[7-(4-Cyanophenyl)benzo[d]thiazol-6-yl]oxy]-2-methylpropanoic acid], for which the remaining activity at 10 µM amounted to 15.6%.

Consider `O=C(O)/C=C/Oc1ccc2ccccc2c1-c1cccnc1` [Example 10, (E)-3-[[1-(Pyridin-3-yl)naphthalen-2-yl]oxy]acrylic acid], for which the remaining activity at 10 µM was determined as 27.1%.

Turning to `CC(C)(Oc1ccc2cnsc2c1-c1ccc(C#N)cc1)C(=O)O` [Example 26, 2-[[7-(4-Cyanophenyl)benzo[d]isothiazol-6-yl]oxy]-2-methylpropanoic acid], the remaining activity at 10 µM worked out at 11.6%.

Take `Cc1cc(C#N)ccc1-c1c(SC(C)(C)C(=O)O)ccc2cnsc12` [Example 86, 2-[[7-(4-Cyano-2-methylphenyl)benzo[d]isothiazol-6-yl]thio]-2-methylpropanoic acid]: the remaining activity at 10 µM turned out to be 12.1%.

Turning to `N#Cc1ccc(-c2c(SC3(C(=O)O)CCC3)ccc3cnsc23)cc1` [Example 66, 1-[[7-(4-Cyanophenyl)benzo[d]isothiazol-6-yl]thio]cyclobutan-1-carboxylic acid], the remaining activity at 10 µM stood at 1.8% and inhibition was half-maximal at 21.5 nM (IC50).

With `C/C(=C\C(=O)O)Sc1ccc2ccccc2c1-c1ccc(C#N)cc1` [Example 116, (E)-3-[[1-(4-cyanophenyl)naphthalen-2-yl]thio]-2-butenoic acid], the remaining activity at 10 µM amounted to 1.3% and half-maximal inhibition (IC50) required 25 nM.

As for `CC(C)(Sc1ccc2nc(C(F)(F)F)sc2c1-c1ccc(C#N)cc1)C(=O)O` [Example 60, 2-[[7-(4-Cyanophenyl)-2-(trifluoromethyl)benzo[d]thiazol-6-yl]thio]-2-methylpropanoic acid], the remaining activity at 10 µM was 69.2%.

As for `CC(C)(Oc1ccc2ccccc2c1-c1ccc(C#N)c2ccccc12)C(=O)O` [Example 2, 2-[(4′-Cyano-(1,1′-binaphthalene)-2-yl]oxy]-2-methylpropanoic acid], the remaining activity at 10 µM worked out at 45.4% and it took 2060 nM to reach half-maximal inhibition (IC50).

Consider `N#Cc1ccc(-c2c(O/C=C\C(=O)O)ccc3ccccc23)cc1` [Example 7, (Z)-3-[[1-(4-Cyanophenyl)naphthalen-2-yl]oxy]acrylic acid], for which the remaining activity at 10 µM was found to be 29.5%.

In the case of `CC(C)C(Sc1ccc2cnsc2c1-c1ccc(C#N)cc1)C(=O)O` (centres unmarked) [Example 70, 2-[[7-(4-Cyanophenyl)benzo[d]isothiazol-6-yl]thio]-3-methylbutanoic acid], the remaining activity at 10 µM was found to be 6.4%.
